The test system of test [1] is ulcer. Description: Anti-ulcer test (restraint and water immersion ulcer in rats, i.p.). The format is in vivo, Male Wistar rats. To be noted: Rattus norvegicus, ip, read-out: % Inhibition of Ulcer; for inhibition in vivo at 50 mg/kg: 50 mg/kg i.p. The gist of the method: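 Compound given intraperitoneally in saline to 24 h-fasted male Wistar rats about 150 g, followed after one hour by 6 h restraint with water immersion at 21 °C. Gastric lesions graded 0, 0.5, 1, 2 or 3 on microscopic inspection and converted to percent ulcer inhibition.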

Test [2] deals with edema. Description: Anti-edema test (carrageenan hindfoot edema in rats, p.o.). The format is in vivo, Male Wistar rats. Conditions: Rattus norvegicus, po; 100 mg/kg p.o. (after 3 hours). As to the method: Tables 13, 14 and 15 show the effect of these compounds to inhibit the occurrence of ulcer and edema. The anti-ulcer and anti-edema activity of the compounds was evaluated in efficacy tests described below. The first two symbols that appear in each of the compound names in Tables 13 and 15 represent the compounds synthesized in the methods (1) through (29); for example, IIIa-1 of a compound IIIa-1-1 represent the compound (IIIa-1).
Male Wistar rats weighing about 150 g on average were starved overnight prior to the test. They were than orally administered 100 mg/kg of the test compound. One hour later, the pad of a hindfoot of the animal was injected with 1 mg of carrageenan. The volume of the foot was measured both before the injection of carrageenan and three hours after the injection. The percent edema inhibition of the test compound was calculated from the ratio of the increase in the volume of the affected foot of the test animals to the increase in the volume of the affected foot of the controls.
(The carrageenan paw model is a standard test of acute inflammation.)

Like-named read-outs stand apart in the source and are kept apart here.

For `CCCCCCCNC1CC(=O)OC1C(O)C(=O)NC(CC(C)C)C1Cc2cccc(O)c2C(=O)O1` (stereo not shown) [IIIa-18-8], the inhibition in vivo at 50 mg/kg in test [1] was 94%. The same compound showed an inhibition in vivo at 100 mg/kg in test [2] of 50%.
For `CCCCCCCCCCCCNC1CC(=O)OC1C(O)C(=O)NC(CC(C)C)C1Cc2cccc(O)c2C(=O)O1` (stereo not shown) [IIIa-18-10], in that order: 94% and 43%.
For `CC(C)CCNC1CC(=O)OC1C(O)C(=O)NC(CC(C)C)C1Cc2cccc(O)c2C(=O)O1` (stereo not shown) [IIIa-18-5] the same measures were 100% and 47%.
For `CCCCNC1CC(=O)OC1C(O)C(=O)NC(CC(C)C)C1Cc2cccc(OC)c2C(=O)O1` (stereo not shown) [IIIa-22-74], in that order: 100% and 45%.
`CCNC1CC(=O)OC1C(O)C(=O)NC(CC(C)C)C1Cc2cccc(OCC)c2C(=O)O1` (stereo not shown) [IIIa-22-1]: in test [1], the inhibition in vivo at 50 mg/kg was determined as 94%. Also, in test [2], the inhibition in vivo at 100 mg/kg worked out at 37%.
`CC(C)CNC1CC(=O)OC1C(O)C(=O)NC(CC(C)C)C1Cc2cccc(O)c2C(=O)O1` (stereo not shown) [IIIa-18-4]: the inhibition in vivo at 50 mg/kg in test [1] stood at 94%. In test [2], this compound displayed an inhibition in vivo at 100 mg/kg of 47%.
For `CCNC1CC(=O)OC1C(O)C(=O)NC(CC(C)C)C1Cc2cccc(OC)c2C(=O)O1` (stereo not shown) [IIIa-22-5], in that order: 94% and 37%.
`CCCCNC1CC(=O)OC1C(O)C(=O)NC(CC(C)C)C1Cc2cccc(O)c2C(=O)O1` (stereo not shown) [IIIa-18-3]: the inhibition in vivo at 50 mg/kg in test [1] was 100%. The same compound registered an inhibition in vivo at 100 mg/kg in test [2] of 42%.
For `CCCCCNC1CC(=O)OC1C(O)C(=O)NC(CC(C)C)C1Cc2cccc(O)c2C(=O)O1` (stereo not shown) [IIIa-18-6], in that order: 94% and 50%.
For `CCCCCCNC1CC(=O)OC1C(O)C(=O)NC(CC(C)C)C1Cc2cccc(O)c2C(=O)O1` (stereo not shown) [IIIa-18-7], in that order: 100% and 51%.
For `CCCCCCCCCCCCCCCCCCNC1CC(=O)OC1C(O)C(=O)NC(CC(C)C)C1Cc2cccc(O)c2C(=O)O1` (stereo not shown) [IIIa-18-11], in that order: 83% and 35%.
In the case of `CCCCCCCCNC1CC(=O)OC1C(O)C(=O)NC(CC(C)C)C1Cc2cccc(O)c2C(=O)O1` (stereo not shown) [IIIa-18-9], the inhibition in vivo at 50 mg/kg in test [1] is 94%. The same compound returned an inhibition in vivo at 100 mg/kg in test [2] of 43%.
For `CCOc1cccc2c1C(=O)OC(C(CC(C)C)NC(=O)C(O)C1OC(=O)CC1NCCC(C)C)C2` (stereo not shown) [IIIa-22-2] the same measures were 94% and 35%.
Regarding `CCCCOc1cccc2c1C(=O)OC(C(CC(C)C)NC(=O)C(O)C1OC(=O)CC1NCC)C2` (stereo not shown) [IIIa-22-3], the inhibition in vivo at 50 mg/kg in test [1] was 94%. This compound also registered an inhibition in vivo at 100 mg/kg in test [2] of 38%.
For the compound `CCCCNC1CC(=O)OC1C(O)C(=O)NC(CC(C)C)C1Cc2cccc(OCC)c2C(=O)O1` (stereo not shown) [IIIa-22-75], in test [1], the inhibition in vivo at 50 mg/kg came to 100%. In test [2], the inhibition in vivo at 100 mg/kg is 48%.
For the compound `CC(C)CC(NC(=NCCN1CCCCC1)C(O)C(O)C(N)CC(=O)O)C1Cc2cccc(O)c2C(=O)O1` (stereo not shown) [Vb-1-45], in test [1], the inhibition in vivo at 50 mg/kg turned out to be 94%.
Turning to `CC(C)CC(NC(=NCCN1CCOCC1)C(O)C(O)C(N)CC(=O)O)C1Cc2cccc(O)c2C(=O)O1` (stereo not shown) [Vb-1-44], the inhibition in vivo at 50 mg/kg in test [1] stood at 94%.
On the same count and under the same terms, under `CCNC1CC(=O)OC1C(OC(C)=O)C(=O)NC(CC(C)C)C1Cc2cccc(O)c2C(=O)O1` (stereo not shown) [IIIa-19-1] stands 66%; under `CCCCCCCCCCCCCCCCCCNC1CC(=O)OC1C(OCC)C(=O)NC(CC(C)C)C1Cc2cccc(OCCCCCCC)c2C(=O)O1` (stereo not shown) [IIIa-24-4], 44%.
On to `CCOc1cccc2c1C(=O)OC(C(CC(C)C)NC(=O)C(OC(=O)C(C)C)C(O)C(N)CC(N)=O)C2` (stereo not shown) [VII-6-2], for which, in test [1] (25 mg/kg i.p.), the inhibition in vivo at 25 mg/kg turned out to be 66%.
On to `CNC1CC(=O)OC1C(O)C(=O)NC(CC(C)C)C1Cc2cccc(O)c2C(=O)O1` (stereo not shown) [IIIa-27-1], for which the inhibition in vivo at 50 mg/kg in test [1] was found to be 100%. This compound yielded an inhibition in vivo at 100 mg/kg in test [2] of 38%.
As to `CCCCNC(=O)CC(N)C(O)C(O)C(=O)NC(CC(C)C)C1Cc2cccc(O)c2C(=O)O1` (stereo not shown) [VII-1-4], the inhibition in vivo at 25 mg/kg in test [1] (25 mg/kg i.p.) amounted to 100%.
On the same count and under the same terms, under `CC(=O)OC(C)CCNC(=O)CC(N)C(O)C(O)C(=O)NC(CC(C)C)C1Cc2cccc(O)c2C(=O)O1` (stereo not shown) [VII-1-28] stands 94%.
As for `CCNC1CC(=O)OC1C(O)C(=O)NC(CC(C)C)C1Cc2cccc(O)c2C(=O)O1` (stereo not shown) [IIIa-18-1], in test [1], the inhibition in vivo at 50 mg/kg worked out at 100%. This compound gave an inhibition in vivo at 100 mg/kg in test [2] of 38%.
For the compound `CC(C)CC(NC(=O)C(O)C(O)C(N)CC(=O)NCC1CCCCCCC1)C1Cc2cccc(O)c2C(=O)O1` (stereo not shown) [VII-1-33], in test [1] (25 mg/kg i.p.), the inhibition in vivo at 25 mg/kg stood at 83%.
`CCCNC1CC(=O)OC1C(O)C(=O)NC(CC(C)C)C1Cc2cccc(O)c2C(=O)O1` (stereo not shown) [IIIa-18-2]: in test [1], the inhibition in vivo at 50 mg/kg was found to be 100%. In test [2], this compound displayed an inhibition in vivo at 100 mg/kg of 38%.
Regarding `CCCCN=C(NC(CC(C)C)C1Cc2cccc(O)c2C(=O)O1)C(O)C(O)C(CC(=O)O)NCCCC` (stereo not shown) [Vb-10-3], the inhibition in vivo at 50 mg/kg in test [1] was determined as 89%.
For the compound `COC(C(=O)NC(CC(C)C)C1Cc2cccc(O)c2C(=O)O1)C(O)C(N)CC(N)=O` (stereo not shown) [VII-8-1], in test [1], the inhibition in vivo at 25 mg/kg is 89%.
With `CC(C)CCOc1ccc(C(=O)Oc2cccc3c2C(=O)OC(C(CC(C)C)NC(=O)C(O)C2OC(=O)CC2N)C3)cc1` (stereo not shown) [IIIa-12-8], the inhibition in vivo at 50 mg/kg in test [1] was determined as 72%.
With `CNC(CC(N)=O)C(O)C(OC(=O)CC(C)C)C(=O)NC(CC(C)C)C1Cc2cccc(O)c2C(=O)O1` (stereo not shown) [VII-20-2], in test [1] (25 mg/kg i.p.), the inhibition in vivo at 25 mg/kg came out at 66%.
In the case of `CCNC(CC(N)=O)C(O)C(O)C(=O)NC(CC(C)C)C1Cc2cccc(OC(=O)CC)c2C(=O)O1` (stereo not shown) [VII-13-3], the inhibition in vivo at 25 mg/kg in test [1] (25 mg/kg i.p.) was 83%.
For the compound `CNC(CC(N)=O)C(O)C(OC)C(=O)NC(CC(C)C)C1Cc2cccc(O)c2C(=O)O1` (stereo not shown) [VII-26-1], in test [1] (25 mg/kg i.p.), the inhibition in vivo at 25 mg/kg worked out at 89%.
As for `CCOc1cccc2c1C(=O)OC(C(CC(C)C)NC(=O)C(O)C1OC(=O)CC1NC(=O)C=Cc1ccoc1)C2` (stereo not shown) [IIIa-5-56], in test [1], the inhibition in vivo at 50 mg/kg is 44%.
Same read-out and setting: as for `CCCCCCCCCCCCCCCCCC(=O)NC1CC(=O)OC1C(OC(C)=O)C(=O)NC(CC(C)C)C1Cc2cccc(O)c2C(=O)O1` (stereo not shown) [IIIa-2-4], the figure is 33%.
Take `CCCCOC(C(=O)NC(CC(C)C)C1Cc2cccc(O)c2C(=O)O1)C(O)C(CC(N)=O)NCC` (stereo not shown) [VII-17-1]: in test [1] (25 mg/kg i.p.), the inhibition in vivo at 25 mg/kg is 78%.
Take `CCCCCCCCOc1cccc2c1C(=O)OC(C(CC(C)C)NC(=O)C(O)C1OC(=O)CC1NCC)C2` (stereo not shown) [IIIa-22-11]: the inhibition in vivo at 50 mg/kg in test [1] amounted to 83%.
Turning to `CCCCOC(C(=O)NC(CC(C)C)C1Cc2cccc(OC)c2C(=O)O1)C1OC(=O)CC1NC` (stereo not shown) [IIIa-33-1], the inhibition in vivo at 50 mg/kg in test [1] amounted to 56%.
On to `CSc1ccc(C(=O)NC2CC(=O)OC2C(O)C(=O)NC(CC(C)C)C2Cc3cccc(O)c3C(=O)O2)cc1` (stereo not shown) [IIIa-1-46], for which the inhibition in vivo at 50 mg/kg in test [1] amounted to 66%.
Take `CC(=O)OC(C(=O)NC(CC(C)C)C1Cc2cccc(O)c2C(=O)O1)C(O)C(N)CC(N)=O` (stereo not shown) [VII-2-1]: the inhibition in vivo at 25 mg/kg in test [1] (25 mg/kg i.p.) stood at 78%.
For the compound `CC(C)CCOc1ccc(COc2cccc3c2C(=O)OC(C(CC(C)C)NC(=O)C(O)C2C=CC(=O)O2)C3)cc1` (stereo not shown) [IVa-4-24], in test [1], the inhibition in vivo at 50 mg/kg was 33%.
On the same count and under the same terms, as for `CC(=O)OC(C)CC(=O)NC1CC(=O)OC1C(O)C(=O)NC(CC(C)C)C1Cc2cccc(O)c2C(=O)O1` (stereo not shown) [IIIa-1-48], the figure is 66%.
With `CCOC(C(=O)NC(CC(C)C)C1Cc2cccc(O)c2C(=O)O1)C(O)C(N)CC(N)=O` (stereo not shown) [VII-8-3], the inhibition in vivo at 25 mg/kg in test [1] (25 mg/kg i.p.) turned out to be 89%.
With `CCOc1cccc2c1C(=O)OC(C(CC(C)C)NC(=O)C(O)C1OC(=O)CC1NC(=O)c1ccc3ccccc3c1)C2` (stereo not shown) [IIIa-5-17], the inhibition in vivo at 50 mg/kg in test [1] is 33%.
Regarding `COC(C(=O)NC(CC(C)C)C1Cc2cccc(OC(=O)C(C)C)c2C(=O)O1)C(O)C(CC(N)=O)NC(C)=O` (stereo not shown) [VII-36-1], the inhibition in vivo at 25 mg/kg in test [1] (25 mg/kg i.p.) worked out at 66%.
On to `CC(=O)N1CCC(COc2cccc3c2C(=O)OC(C(CC(C)C)NC(=O)C(O)C2C=CC(=O)O2)C3)CC1` (stereo not shown) [IVa-4-16], for which, in test [1], the inhibition in vivo at 50 mg/kg worked out at 33%.
On the same count and under the same terms, under `CC(C)CC(NC(=O)C(O)C1OC(=O)CC1N)C1Cc2cccc(OCCC3CCCCO3)c2C(=O)O1` (stereo not shown) [IIIa-13-15] stands 94%; under `CCOc1cccc2c1C(=O)OC(C(CC(C)C)NC(=O)C(O)C1OC(=O)CC1NC(=O)Cc1ccc3ccccc3c1C)C2` (stereo not shown) [IIIa-5-21], 33%; under `CC(C)CC(NC(=O)C(O)C1OC(=O)CC1NC(=O)c1cocc1C(=O)O)C1Cc2cccc(O)c2C(=O)O1` (stereo not shown) [IIIa-1-60], 66%.
Same read-out and setting: as for `CSCCNC1CC(=O)OC1C(O)C(=O)NC(CC(C)C)C1Cc2cccc(O)c2C(=O)O1` (stereo not shown) [IIIa-18-38], the figure is 94%.

For the origin of these results see patent US4393225A, “AI-77 Compounds and pharmaceutically acceptable salts thereof” (Asahi Kasei Kogyo Kabushiki Kaisha, priority 1979, dated 1983).
